Measured values published in patent US7202068B2, “Enone reductase and methods of making and using thereof” (priority 2002, dated 2007).

System: enone reductase
Experiment: Substrate specificity of the enone reductase (standard enzyme assay with various substrates)
Format: biochemical, Candida kefyr (Candida macedoniensis) IFO 0960
Details: 0.05% final concentration, 30° C.
Experimental: (§1) The standard enzyme assay was performed as follows: a total volume of 1 ml of the basal reaction mixture (200 μl of 1 M Tris-HCl buffer pH 7.5, 100 μl of 80 mM NADH or NADPH, 100 μl of 0.658 M ketoisophorone, 600 μl H2O) was supplemented by 5 μl of the enzyme solution and incubated at 40° C. One unit of the enzyme activity was defined as the amount of the enzyme, which catalyzes the […] of 1 μmol of ketoisophorone per minute. The reaction mixture was extracted by 1 ml of ethylacetate to recover the levodione into the ethylacetate layer. The extract was analyzed by gas chromatography [column: ULBON HR-20M (Shinwa, Japan) 0.25 mmφ×30 m, column temperature: 160° C. (constant), injector temperature: 250° C., carrier gas: He (ca. 1 ml/min)]. The protein concentration was determined by using a Bio-Rad protein assay kit (Bio-Rad, USA).
Substrate specificity of the enzyme was determined by using the same enzyme assay method as described above under (1), except that various substrate solutions (0.05% final concentration in the reaction mixture) were used instead of ketoisophorone, and the reaction was done at 30° C. The relative activity (%) of different substrates is compared in Table 1, showing the best result with 3-butene-2-one.

Compound	relative activity of different substrates (in words)
C=CC(C)=O [3-Butene-2-one]	best result

Same assay, conditions: as substrate, 0.05% final concentration, 30° C., ketoisophorone = 100

Compound	Relative Activity (%)
O=[N+]([O-])C1=CCCCC1 [1-Nitro-1-cyclohexen]	373.8%
O=C1C=CCCC1 [2-Cyclohexen-1-one]	252.1%
C=CC(C)=O [3-Butene-2-one]	403.3%
O=CC=Cc1ccccc1 [Cinnamaldehyde]	216.7%
CC1=CC(=O)CC(C)(C)C1=O [Ketoisophorone, 2,6,6-trimethyl-2-cyclohexene-1,4-dione]	100%
R-(−)-Carvone	56.3%

System: enone reductase
Experiment: Effect of metal ions and other compounds on the enzyme activity
Format: biochemical, Candida kefyr (Candida macedoniensis) IFO 0960
Details: not given

Compound	Relative Activity (%)	inhibition of the enzyme activity (in words)
O=[N+]([O-])[O-].[Ag+] [AgNO3]	49.1%	inhibited the enzyme activity moderately
O=S(=O)([O-])[O-].[Be+2] [BeSO4]	80.9%	–
[Ca+2].[Cl-].[Cl-] [CaCl2]	108%	–
[Cl][Cd][Cl] [CdCl2]	104%	–
O=S(=O)([O-])[O-].[Cu+2] [CuSO4]	55.9%	inhibited the enzyme activity moderately
O=C(O)CN(CCN(CC(=O)O)CC(=O)O)CC(=O)O [EDTA]	110%	–
O=C(O)CI [Iodoacetate]	93.6%	–
[Cl-].[K+] [KCl]	103%	–
[Cl-].[Cl-].[Mg+2] [MgCl2]	111%	–
[Cl][Mn][Cl] [MnCl2]	94.6%	–
[NH4+].[O]=[V](=[O])[O-] [NH4VO3]	9.6%	inhibited the enzyme activity moderately
[Cl-].[Na+] [NaCl]	108%	–
[F-].[Na+] [NaF]	101%	–
N#C[S-].[Na+] [NaSCN]	93.6%	–
[Cl][Ni][Cl] [NiCl]	108%	–
O=[N+]([O-])[O-].O=[N+]([O-])[O-].[Pb+2] [Pb(NO3)2]	0%	inhibited the enzyme activity strongly
[Cl-].[Rb+] [RbCl]	107%	–
C[n+]1c2cc(N)ccc2cc2ccc(N)cc21.[Cl-] [Trypaflavine]	0%	inhibited the enzyme activity strongly
O=S(=O)([O-])[O-].[Zn+2] [ZnSO4]	101%	–
CoCl2	113%	–

Same assay, conditions: compound added, final concentration of metal 1 mM, substrate 2-cyclohexen-1-one, None = 100

Compound	Relative Activity (%)
N=C(N)N [Guanidine]	61.1%
[Cl][Hg][Cl] [HgCl2]	40.8%
[Cl-].[Li+] [LiCl]	104%

Same assay, conditions: final concentration of metal 1 mM, substrate 2-cyclohexen-1-one

Compound	inhibition of the enzyme activity (in words)
N=C(N)N [Guanidine]	inhibited the enzyme activity moderately
[Cl][Hg][Cl] [HgCl2]	inhibited the enzyme activity moderately

System: enone reductase
Experiment: Cofactor requirement of the enzyme to convert ketoisophorone to levodione
Format: biochemical, Candida kefyr (Candida macedoniensis) IFO 0960
Details: not given
Experimental: as §1
The cofactor requirement of the enzyme to convert ketoisophorone to levodione was investigated.

Compound	serves as co-factor for the reductive reaction
NC(=O)C1=CN([C@@H]2O[C@H](COP(=O)(O)OP(=O)(O)OC[C@H]3O[C@@H](n4cnc5c(N)ncnc54)[C@H](O)[C@@H]3O)[C@@H](O)[C@H]2O)C=CC1 [NADH]	could serve as a co-factor
NC(=O)C1=CN([C@@H]2O[C@H](COP(=O)(O)OP(=O)(O)OC[C@H]3O[C@@H](n4cnc5c(N)ncnc54)[C@H](OP(=O)(O)O)[C@@H]3O)[C@@H](O)[C@H]2O)C=CC1 [NADPH]	could serve as a co-factor
